IC50 data for 14 molecules are collected here from US11123355B2, “Antiviral benzyl-amine phosphodiamide compounds” (Merck Sharp & Dohme Corp., priority 2016, dated 2021).

The experiment has as its system HIV-1 (H9/IIB strain). Kind of experiment: Multiple Round HIV-1 Infection Assay (Viking Assay) in MT4-GFP cells. Format: cell-based. As to conditions: inhibition of reproductive ratio R0. The procedure: Assessing antiviral potency in a Multiple Round HIV-1 Infection Assay (Viking Assay) The antiviral activity of the tenofovir prodrugs of the Examples herein was assessed in an assay that measures the rate of replication of HIV in cell culture, termed the Viking assay (VIral KINetics in Green cells) and performed as follows. HIV-1 replication was monitored using MT4-gag-GFP clone D3 (hereafter designated MT4-GFP), which are MT-4 cells modified to harbor a GFP reporter gene, the expression of which is dependent on the HIV-1 expressed proteins tat and rev. Productive infection of an MT4-GFP cell with HIV-1 results in GFP expression approximately 24 h post-infection. MT4-GFP cells were maintained at 37° C./5% CO2/90% relative humidity in RPMI 1640 supplemented with 10/o fetal bovine serum, 100 U/ml penicillin/streptomycin, and 400 μg/ml G418 to maintain the reporter gene. For infections, MT4-GFP cells were placed in the same medium lacking G418 and infected overnight with HIV-1 (H9/IIB strain) virus at an approximate multiplicity of infection of 0.01 in the same incubation conditions. Cells were then washed and re-suspended in either RPMI 1640 supplemented with 10% or 50% normal human serum (NHS) at 1.6×10^5 cells/mL (10% NHS or 50% NHS, respectively). Compound plates were prepared by dispensing compounds dissolved in DMSO into wells of 384 well poly-D-lysine-coated plates (0.2 μl/well) using an ECHO acoustic dispenser. Each compound was tested in a 10-point serial 3-fold dilution (typical final concentrations: 8.4 μM-0.42 nM). Controls included no inhibitor (DMSO only) and a combination of three antiviral agents (efavirenz, indinavir, an in-house integrase strand transfer inhibitor at final concentrations of 4 μM each). Cells were added (50 μL/well) to compound plates and the infected cells were maintained at 37° C./5% CO2/90% relative humidity.
Infected cells were quantified at two time points, ˜48 h and ˜72 h post-infection, by counting the number of green cells in each well using an Acumen eX3 scanner. The increase in the number of green cells over ˜24 h period gives the reproductive ratio, R0, which is typically 5-15 and has been shown experimentally to be in logarithmic phase (data not shown). Inhibition of R0 is calculated for each well, and IC50s determined by non-linear 4-parameter curve fitting.

[1] abbreviates: MT4-GFP cells infected with HIV-1, 10% normal human serum, read-out: Viking, IC50 (10% NHS).
Setting [2] is: MT4-GFP cells infected with HIV-1, 50% normal human serum, read-out: Viking, IC50 (50% NHS).
Where [3] appears, read: Human immunodeficiency virus 1, MT4-GFP cells infected with HIV-1, 10% normal human serum, read-out: Viking, IC50 (10% NHS).
[4] abbreviates: Human immunodeficiency virus 1, MT4-GFP cells infected with HIV-1, 50% normal human serum, read-out: Viking, IC50 (50% NHS).

Where two headings read alike, the source gives them in different places.

What is called IC50 is the concentration that gives 50% inhibition. `CCCOC(=O)C(C)(C)N[P@@](=O)(CO[C@H](C)Cn1cnc2c(N)ncnc21)N[C@@H](c1ccc(C#N)cc1)C(F)(F)F.CCCOC(=O)C(C)(C)N[P@](=O)(CO[C@H](C)Cn1cnc2c(N)ncnc21)N[C@@H](c1ccc(C#N)cc1)C(F)(F)F` (mixture of isomers) [Example 24A, propyl 2-(((R)-((((R)-1-(6-amino-9H-purin-9-yl)propan-2-yl)oxy)methyl)(((S)-1-(4-cyanophenyl)-2,2,2-trifluoroethyl)amino)phosphoryl)amino)-2-methylpropanoate and propyl 2-(((S)-((((R)-1-(6-amino-9H-purin-9-yl)propan-2-yl)oxy)methyl)(((S)-1-(4-cyanophenyl)-2,2,2-trifluoroethyl)amino)phosphoryl)amino)-2-methylpropanoate]: the IC50 was found to be 6.3 nM under setting [1] and 30 nM under setting [2].

Take `CCCOC(=O)C(C)(C)N[P@@](=O)(CO[C@H](C)Cn1cnc2c(N)ncnc21)N[C@@H](c1ccc(C#N)cc1)C(F)(F)F.CCCOC(=O)C(C)(C)N[P@](=O)(CO[C@H](C)Cn1cnc2c(N)ncnc21)N[C@@H](c1ccc(C#N)cc1)C(F)(F)F` (mixture of isomers) [Example 24B, propyl 2-(((R)-((((R)-1-(6-amino-9H-purin-9-yl)propan-2-yl)oxy)methyl)(((S)-1-(4-cyanophenyl)-2,2,2-trifluoroethyl)amino)phosphoryl)amino)-2-methylpropanoate and propyl 2-(((S)-((((R)-1-(6-amino-9H-purin-9-yl)propan-2-yl)oxy)methyl)(((S)-1-(4-cyanophenyl)-2,2,2-trifluoroethyl)amino)phosphoryl)amino)-2-methylpropanoate]: the IC50 stood at 22 nM under setting [1] and 170 nM under setting [2].

As for `CCCOC(=O)C(C)(C)NP(=O)(CO[C@H](C)Cn1cnc2c(N)ncnc21)N(C)[C@H](C)c1ccc(Cl)cc1` (single isomer, unassigned) [Example 2B], the IC50 was found to be 2 nM under setting [3] and 9.6 nM under setting [4].

Turning to `CCCOC(=O)C(C)(C)N[P@@](=O)(CO[C@H](C)Cn1cnc2c(N)ncnc21)N[C@H](c1ccc(OC(F)(F)F)cc1)C(F)(F)F` (single isomer, unassigned) [Example 27B], the IC50 was determined as 52 nM under setting [1] and 250 nM under setting [2].

As for `CCCOC(=O)C(C)(C)NP(=O)(CO[C@H](C)Cn1cnc2c(N)ncnc21)N[C@H](C)c1ccc(Cl)cc1` (stereo partly drawn) [Example 1A, propyl 2-(((R)-((((R)-1-(6-amino-9H-purin-9-yl)propan-2-yl)oxy)methyl(((R)-1-(4-chlorophenyl)ethyl)amino)phosphoryl)amino)-2-methylpropanoate and propyl 2-(((S)-((((R)-1-(6-amino-9H-purin-9-yl)propan-2-yl)oxy)methyl)(((R)-1-(4-chlorophenyl)ethyl)amino)phosphoryl)amino)-2-methylpropanoate], the IC50 turned out to be 120 nM under setting [3] and 710 nM under setting [4].

With `CCCOC(=O)C(C)(C)NP(=O)(CO[C@H](C)Cn1cnc2c(N)ncnc21)N(C)[C@H](C)c1ccc(Cl)cc1` (stereo partly drawn) [Example 2A, propyl 2-(((R)-((((R)-1-(6-amino-9H-purin-9-yl)propan-2-yl)oxy)methyl(((R)-1-(4-chlorophenyl)ethyl)(methyl)amino)phosphonyl)amino)-2-methylpropanoate and propyl 2-(((S)-((((R)-1-(6-amino-9H-purin-9-yl)propan-2-yl)oxy)methyl)(((R)-1-(4-chlorophenyl)ethyl)(methyl)amino)phosphoryl)amino)-2-methylpropanoate], the IC50 runs as follows: under setting [3], 43 nM; under setting [4], 130 nM.

In the case of `CCCOC(=O)C(C)(C)NP(=O)(CO[C@H](C)Cn1cnc2c(N)ncnc21)N[C@H](C)c1ccc(OC(F)(F)F)cc1` (stereo partly shown) [Example 3A], the 50% inhibitory concentration (IC50) under setting [3] worked out at 80 nM and the IC50 under setting [4] stood at 780 nM.

Take `CCCOC(=O)C(C)(C)NP(=O)(CO[C@H](C)Cn1cnc2c(N)ncnc21)N[C@H](c1ccc(OC(F)(F)F)cc1)C(F)(F)F` (stereo partly shown) [Example 4B]: the IC50 worked out at 16 nM under setting [1] and 160 nM under setting [2].

Regarding `CCCOC(=O)C(C)(C)N[P@@](=O)(CO[C@H](C)Cn1cnc2c(N)ncnc21)NCc1ccc(OC(F)(F)F)cc1` [Example 7B, propyl 2-(((R)-((((R)-1-(6-amino-9H-purin-9-yl)propan-2-yl)oxy)methyl)((4-(trifluoromethoxy)benzyl)amino)phos-phoryl)amino)-2-methylpropanoate and propyl 2-(((S)-((((R)-1-(6-amino-9H-purin-9-yl)propan-2-yl)oxy)methyl)((4-(trifluoromethoxy)benzyl)amino)phos-phoryl)amino)-2-methylpropanoate], the IC50 by setting is: under setting [1], 45 nM; under setting [2], 300 nM.

For the molecule `CCCOC(=O)C(C)(C)N[P@@](=O)(CO[C@H](C)Cn1cnc2c(N)ncnc21)N[C@H](C)c1cccc(F)c1` [Example 9A, propyl 2-(((R)-((((R)-1-(6-amino-9H-purin-9-yl)propan-2-yl)oxy)methyl)(((R)-1-(3-fluorophenyl)ethyl)amino)phosphoryl)ami-no)-2-methylpropanoate and propyl 2-(((S)-((((R)-1-(6-amino-9H-purin-9-yl)propan-2-yl)oxy)methyl)(((R)-1-(3-fluorophenyl)ethyl)amino)phosphoryl)ami-no)-2-methylpropanoate], the IC50 under setting [1] came to 89 nM and the IC50 under setting [2] was determined as 940 nM.

In the case of `CCCOC(=O)C(C)(C)N[P@@](=O)(CO[C@H](C)Cn1cnc2c(N)ncnc21)N[C@@H](C)c1cccc(F)c1` [Example 10A, propyl 2-(((R)-((((R)-1-(6-amino-9H-purin-9-yl)propan-2-yl)oxy)methyl)(((S)-1-(3-fluorophenyl)ethyl)amino)phosphoryl)ami-no)-2-methylpropanoate and propyl 2-(((S)-((((R)-1-(6-amino-9H-purin-9-yl)propan-2-yl)oxy)methyl)(((S)-1-(3-fluorophenyl)ethyl)amino)phosphoryl)ami-no)-2-methylpropanoate], the IC50 reads like this: under setting [1], 68 nM; under setting [2], 560 nM.

In the case of `CCCOC(=O)C(C)(C)N[P@@](=O)(CO[C@H](C)Cn1cnc2c(N)ncnc21)N[C@@H](C)c1cccc(F)c1` [Example 10B, propyl 2-(((R)-((((R)-1-(6-amino-9H-purin-9-yl)propan-2-yl)oxy)methyl)(((S)-1-(3-fluorophenyl)ethyl)amino)phosphoryl)ami-no)-2-methylpropanoate and propyl 2-(((S)-((((R)-1-(6-amino-9H-purin-9-yl)propan-2-yl)oxy)methyl)(((S)-1-(3-fluorophenyl)ethyl)amino)phosphoryl)ami-no)-2-methylpropanoate], the IC50 amounted to 99 nM under setting [1] and 490 nM under setting [2].

On to `CCCOC(=O)C(C)(C)NP(=O)(CO[C@H](C)Cn1cnc2c(N)ncnc21)N[C@@H](C)c1ccc(C(F)(F)F)cc1` (stereo partly drawn) [Example 11A, propyl 2-(((R)-((((R)-1-(6-amino-9H-purin-9-yl)propan-2-yl)oxy)methyl)(((S)-1-(4-(trifluoromethyl)phenyl)ethyl)amino)phos-phoryl)amino)-2-methylpropanoate and propyl 2-(((S)-((((R)-1-(6-amino-9H-purin-9-yl)propan-2-yl)oxy)methyl)(((S)-1-(4-(trifluoromethyl)phenyl)ethyl)amino)phosphoryl)amino)-2-methylpropanoate], for which the IC50 runs as follows: under setting [1], 4.6 nM; under setting [2], 42 nM.

As to `CCCOC(=O)C(C)(C)NP(=O)(CO[C@H](C)Cn1cnc2c(N)ncnc21)N[C@@H](C)c1ccc(C(F)(F)F)cc1` (stereo partly drawn) [Example 11B, propyl 2-(((R)-((((R)-1-(6-amino-9H-purin-9-yl)propan-2-yl)oxy)methyl)(((S)-1-(4-(trifluoromethyl)phenyl)ethyl)amino)phos-phoryl)amino)-2-methylpropanoate and propyl 2-(((S)-((((R)-1-(6-amino-9H-purin-9-yl)propan-2-yl)oxy)methyl)(((S)-1-(4-(trifluoromethyl)phenyl)ethyl)amino)phosphoryl)amino)-2-methylpropanoate], the IC50 reads like this: under setting [1], 16 nM; under setting [2], 84 nM.
